# Test results from US4988677A, “Macrolide antibiotic and its use as a medicinal agent” (Hoechst Aktiengesellschaft, priority 1986, dated 1991).
# How the values were obtained:
# S. aureus 209P = experiment: MIC of swalpamycin, agar plate test; format: cell-based, Staphylococcus aureus
# Description: (§1) The minimum inhibitory concentration (MIC) of swalpamycin has been determined for various microorganisms.
# mycoplasma = experiment: antimycoplasma activity; format: cell-based
# Description: as §1
# E. coli 9632 = experiment: MIC of swalpamycin, agar plate test; format: cell-based
# Description: as §1
# Bacillus subtilis [1] = experiment: MIC of swalpamycin, agar plate test; format: cell-based
# Description: as §1
# Cit. freundii = experiment: MIC of swalpamycin, agar plate test; format: cell-based
# Description: as §1
# Micrococcus luteus [2] = experiment: MIC of swalpamycin, agar plate test; format: cell-based
# Description: as §1
# Pr. vulgaris = experiment: MIC of swalpamycin, agar plate test; format: cell-based
# Description: as §1
# Prov. stuartii = experiment: MIC of swalpamycin, agar plate test; format: cell-based
# Description: as §1
# Sarcina lutea [3] = experiment: MIC of swalpamycin, agar plate test; format: cell-based
# Description: as §1
# Ent. cloacae = experiment: MIC of swalpamycin, agar plate test; format: cell-based
# Description: as §1
# E. coli ESS 2231 = experiment: MIC of swalpamycin, agar plate test; format: cell-based
# Description: as §1
# Candida albicans = experiment: MIC of swalpamycin, agar plate test; format: cell-based
# Description: as §1
# Ps. aeruginosa M 35 = experiment: MIC of swalpamycin, agar plate test; format: cell-based
# Description: as §1
# [4] = system: Gram-positive bacteria, including erythromycin-resistant strains; experiment: antibacterial activity; format: cell-based
# Description: as §1
# S. aureus 789 Meth.^R = experiment: MIC of swalpamycin, agar plate test; format: cell-based, Staphylococcus aureus; details: S. aureus 789 Meth.^R (Meth = methicillin)
# Description: (§2) The minimum inhibitory concentration (MIC) of swalpamycin has been determined for various microorganisms. The results are to be found in Table I which follows:
# (§3) *Mac = macrolide, Em = erythromycin, Meth = methicillin
# S. aureus 712 Meth^R = experiment: MIC of swalpamycin, agar plate test; format: cell-based, Staphylococcus aureus; details: S. aureus 712 Meth^R (Meth = methicillin)
# Description: as §2, §3
# S. aureus MLS 16,Em^R = experiment: MIC of swalpamycin, agar plate test; format: cell-based, Staphylococcus aureus; details: S. aureus MLS 16,Em^R (Em = erythromycin)
# Description: as §2, §3
# S. aureus R 85,Em^R = experiment: MIC of swalpamycin, agar plate test; format: cell-based, Staphylococcus aureus; details: S. aureus R 85,Em^R (Em = erythromycin)
# Description: as §2, §3
# S. aureus MLS 14,Em^R = experiment: MIC of swalpamycin, agar plate test; format: cell-based, Staphylococcus aureus; details: S. aureus MLS 14,Em^R (Em = erythromycin)
# Description: as §2, §3
# S. aureus 3066 Meth.^R = experiment: MIC of swalpamycin, agar plate test; format: cell-based, Staphylococcus aureus; details: S. aureus 3066 Meth.^R (Meth = methicillin)
# Description: as §2, §3
# S. aureus R85/M, Em^R = experiment: MIC of swalpamycin, agar plate test; format: cell-based, Staphylococcus aureus; details: Em^R (Em = erythromycin)
# Description: as §2, §3
# S. aureus MLS 11,Em^R = experiment: MIC of swalpamycin, agar plate test; format: cell-based, Staphylococcus aureus; details: S. aureus MLS 11,Em^R (Em = erythromycin)
# Description: as §2, §3
# S. aureus 20424 Mac^R = experiment: MIC of swalpamycin, agar plate test; format: cell-based, Staphylococcus aureus; details: S. aureus 20424 Mac^R (Mac = macrolide)
# Description: as §2, §3
# solubility = format: physicochemical
# Description: Swalpamycin is a colorless amorphous powder which is soluble in methanol, ethanol, n-propanol, isopropanol, n-butanol, ethyl acetate, n-butyl acetate, acetone, ethyl methyl ketone, methyl isobutyl ketone, methylene chloride, chloroform, dimethylformamide and dimethyl sulfoxide.
# Streptococcus pyogenes = experiment: laboratory agar plate tests, antimicrobial spectrum; format: cell-based; details: strains of Streptococcus pyogenes
# Description: as §1
# Bacillus subtilis [5] = experiment: as above; format: cell-based; details: strains of Bacillus subtilis
# Description: as §1
# Micrococcus luteus [6] = experiment: as above; format: cell-based; details: strains of Micrococcus luteus
# Description: as §1
# Sarcina lutea [7] = experiment: as above; format: cell-based; details: strains of Sarcina lutea
# Description: as §1
# Streptococcus faecalis = experiment: as above; format: cell-based; details: sensitive and resistant strains of Streptococcus faecalis
# Description: as §1
# Mycoplasma pulmonis = experiment: as above; format: cell-based; details: strains of Mycoplasma pulmonis
# Description: as §1
# Staphylococcus aureus = experiment: as above; format: cell-based; details: sensitive and resistant strains of Staphylococcus aureus
# Description: as §1
# Mycoplasma gallinarum = experiment: as above; format: cell-based; details: strains of Mycoplasma gallinarum
# Description: as §1
# [8] = system: Strept. faecalis Eder:Mac^R; experiment: MIC of swalpamycin, agar plate test; format: cell-based, Streptococcus faecalis; details: Strept. faecalis Eder:Mac^R (Mac = macrolide)
# Description: as §2, §3
# Strept. faecalis UD 86 = experiment: MIC of swalpamycin, agar plate test; format: cell-based, Streptococcus faecalis
# Description: as §1
structure (smiles),measurement,setting,value
"COC1C(OCC2/C=C/C=C/C(=O)C(C)CC(C)C(OC3OC(C)CC4(OC(=O)OC4C)C3O)C(C)/C=C/C(=O)OC2C)OC(C)C(O)C1OC (stereo not drawn) [Swalpamycin, swalpamycin]",minimum inhibitory concentration (MIC),S. aureus 209P,6.3
same,activity,mycoplasma,active
same,minimum inhibitory concentration (MIC),E. coli 9632,> 50
same,minimum inhibitory concentration (MIC),Bacillus subtilis [1],0.1
same,minimum inhibitory concentration (MIC),Cit. freundii,> 50
same,minimum inhibitory concentration (MIC),Micrococcus luteus [2],1.6
same,minimum inhibitory concentration (MIC),Pr. vulgaris,> 50
same,minimum inhibitory concentration (MIC),Prov. stuartii,> 50
same,minimum inhibitory concentration (MIC),Sarcina lutea [3],0.2
same,minimum inhibitory concentration (MIC),Ent. cloacae,> 50
same,minimum inhibitory concentration (MIC),E. coli ESS 2231,> 50
same,minimum inhibitory concentration (MIC),Candida albicans,> 50
same,minimum inhibitory concentration (MIC),Ps. aeruginosa M 35,> 50
same,activity,[4],active
same,minimum inhibitory concentration (MIC),S. aureus 789 Meth.^R,> 50
same,minimum inhibitory concentration (MIC),S. aureus 712 Meth^R,12.5
same,minimum inhibitory concentration (MIC),"S. aureus MLS 16,Em^R",12.5
same,minimum inhibitory concentration (MIC),"S. aureus R 85,Em^R",12.5
same,minimum inhibitory concentration (MIC),"S. aureus MLS 14,Em^R",25
same,minimum inhibitory concentration (MIC),S. aureus 3066 Meth.^R,3.2
same,minimum inhibitory concentration (MIC),"S. aureus R85/M, Em^R",> 50
same,minimum inhibitory concentration (MIC),"S. aureus MLS 11,Em^R",25
same,minimum inhibitory concentration (MIC),S. aureus 20424 Mac^R,50
same,solubility in hexane and petroleum ether,"solubility; hexane, petroleum ether (40°-60°)",sparingly soluble or insoluble
same,solubility in organic solvents,"solubility; methanol, ethanol, n-propanol, isopropanol, n-butanol, ethyl acetate, n-butyl acetate, acetone, ethyl methyl ketone, methyl isobutyl ketone, methylene chloride, chloroform, dimethylformamide, dimethyl sulfoxide",soluble
same,solubility in water,solubility; water,sparingly soluble or insoluble
same,antimicrobial activity in vitro,Streptococcus pyogenes,acts in vitro
same,antimicrobial activity in vitro,Bacillus subtilis [5],acts in vitro
same,antimicrobial activity in vitro,Micrococcus luteus [6],acts in vitro
same,antimicrobial activity in vitro,Sarcina lutea [7],acts in vitro
same,antimicrobial activity in vitro,Streptococcus faecalis,acts in vitro against sensitive and resistant strains
same,antimicrobial activity in vitro,Mycoplasma pulmonis,acts in vitro
same,antimicrobial activity in vitro,Staphylococcus aureus,acts in vitro against sensitive and resistant strains
same,antimicrobial activity in vitro,Mycoplasma gallinarum,acts in vitro
same,minimum inhibitory concentration (MIC),[8],> 50
same,minimum inhibitory concentration (MIC),Strept. faecalis UD 86,> 50
